Measurements published in publication PMC8355244, “A fragment-based approach identifies an allosteric pocket that impacts malate dehydrogenase activity” (Communications Biology, 2021).

Legend:
[1] = Precipitation / turbidity of compound in assay buffer (600 nm); type: physicochemical; conditions: activity screening buffer, 500 µM
Description: 1.3 µL of derivatives of 4-phenylthiazol-2-amine in 100% DMSO were mixed with 237.7 µL of a mastermix of WT PfMDH previously incubated with NAD+. The final compound concentration used in this screening was 500 µM in the presence of 0.5% (v/v) DMSO. The microplate was sealed with silver foil for 1-h incubation at 25–35 °C. Finally, reactions in both the samples and control wells were started upon the addition of 13.0 µL of 5 mM malate). At the end of the experiments, the reaction of the plate was spectrophotometrically assayed at 600 nm in order to identify turbidity due to the low solubility of the compound. All measurements were performed in duplicate.

[2] = target: T1, PfMDH (Plasmodium falciparum, UniProt Q6VVP7); test: Thermal shift assay (TSA); type: binding
T1 construct: The full-length WT PfMDH gene was cloned into pETM-13; made in house; host or cells: E. coli Rosetta 2 (DE3) pLysS
T1 sequence (Q6VVP7 entry or part of it): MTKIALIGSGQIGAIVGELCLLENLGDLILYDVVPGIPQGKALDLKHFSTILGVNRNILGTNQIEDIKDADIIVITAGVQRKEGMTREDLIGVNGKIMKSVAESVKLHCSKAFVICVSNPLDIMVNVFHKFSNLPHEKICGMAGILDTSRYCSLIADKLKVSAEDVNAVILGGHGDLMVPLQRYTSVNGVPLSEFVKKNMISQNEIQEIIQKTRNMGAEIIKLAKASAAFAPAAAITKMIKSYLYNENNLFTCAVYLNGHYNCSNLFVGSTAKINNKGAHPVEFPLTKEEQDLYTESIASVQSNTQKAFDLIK
Description: The TSA experiment was conducted in a BioRad CSX 96 (Biorad). Each reaction consisted of 1 mM of compound (100 mM stock in 100% (v/v) DMSO) and 10 μM PfMDH in 100 mM Na–phosphate buffer pH 7.4, 400 mM NaCl, and 10× Sypro Orange (Invitrogen) for a total volume of 100 μl. Control experiments were performed with 1% (v/v) DMSO. Inflection points were determined using BioRad CFX96™ control software. Generally, a temperature increase of over 1 °C is interpreted as a result of the stabilization of the protein-ligand interaction. On the contrary, a negative shift is considered a destabilization caused by the fragment.

CC(C)c1ccc(-c2csc(N)n2)cc1 [compound 10a]
precipitation of compound in the buffer [1]: precipitation of compound was observed

4-(3-(trifluoromethyl)phenyl)thiazol-2-amine [compound 8a]
ΔTm ([2]; 1 mM compound vs DMSO control): −10 °C | Tm ([2]; 1 mM compound, 10 μM PfMDH, DMSO control Tm 58): 48.0 ± 1.0 °C | precipitation of compound in the buffer [1]: precipitation of compound was observed
